Results from patent US11555012B2 (Nimbus Artemis, Inc., priority 2018, dated 2023).

Key:
ACL [1] = biological target: T1, ACL (Homo sapiens (Human), UniProt P53396); test: ADP-Glo Assay
Target sequence in this assay (P53396 other isoform, or with tags, fused parts or gaps isoform P53396-2): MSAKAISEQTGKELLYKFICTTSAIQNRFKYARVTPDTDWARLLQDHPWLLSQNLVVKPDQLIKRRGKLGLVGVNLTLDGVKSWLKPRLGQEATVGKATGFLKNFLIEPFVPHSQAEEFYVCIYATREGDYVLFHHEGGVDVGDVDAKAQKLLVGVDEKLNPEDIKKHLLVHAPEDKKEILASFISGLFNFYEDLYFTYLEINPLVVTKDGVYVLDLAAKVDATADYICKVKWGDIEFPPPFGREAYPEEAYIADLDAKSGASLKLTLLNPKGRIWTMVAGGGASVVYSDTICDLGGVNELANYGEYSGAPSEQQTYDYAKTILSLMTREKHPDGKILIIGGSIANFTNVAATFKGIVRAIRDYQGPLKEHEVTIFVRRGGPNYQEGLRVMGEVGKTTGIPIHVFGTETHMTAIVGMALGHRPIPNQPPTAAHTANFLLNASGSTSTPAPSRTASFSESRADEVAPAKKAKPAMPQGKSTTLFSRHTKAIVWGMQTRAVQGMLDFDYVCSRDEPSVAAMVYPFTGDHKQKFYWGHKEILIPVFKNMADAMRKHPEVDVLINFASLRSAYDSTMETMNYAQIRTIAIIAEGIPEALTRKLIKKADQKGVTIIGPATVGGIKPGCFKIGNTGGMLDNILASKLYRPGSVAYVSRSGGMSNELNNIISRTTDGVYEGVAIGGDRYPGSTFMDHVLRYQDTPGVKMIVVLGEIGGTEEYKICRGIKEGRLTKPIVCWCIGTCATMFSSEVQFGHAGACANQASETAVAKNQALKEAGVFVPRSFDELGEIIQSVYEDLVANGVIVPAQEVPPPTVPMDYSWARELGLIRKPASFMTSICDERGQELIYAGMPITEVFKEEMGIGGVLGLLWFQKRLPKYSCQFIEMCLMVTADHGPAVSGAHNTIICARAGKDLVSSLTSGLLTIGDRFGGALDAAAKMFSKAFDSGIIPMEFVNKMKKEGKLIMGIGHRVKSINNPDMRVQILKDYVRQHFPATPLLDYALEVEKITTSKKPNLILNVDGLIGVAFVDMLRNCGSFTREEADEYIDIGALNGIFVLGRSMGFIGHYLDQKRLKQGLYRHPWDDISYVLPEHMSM
Protocol: Compounds of the present invention were evaluated in an ADP-GLO assay as follows:
b) Add 0.1 μL diluted cpd solution to assay plate, each dose with 2 replicates c) Centrifuge 1000 RPM for 1 min d) Add 5 μL ACL working solution to 384-well assay plate, centrifuge 1000 RPM for 1 min e) Incubate at 25° C. for 15 min f) Add 5 μL substrate working solution to initiate reaction
h) Reference final conc: 30 uM starting Conc, 3× dilution, 11+0 points. Test cpd conc: 30/100 uM starting Conc, 3× dilution, 11+0 points. i) Incubate at 25° C. for 60 min j) Add 10 μL ADP Glo reagent, centrifuge 1000 RPM for 1 min k) Incubate at 25° C. for 40 min l) Add 20 μL kinase detection reagent, centrifuge 1000 RPM for 1 min m) Incubate at 25° C. for 40 min n) Read on Envision for US LUM as RLU

ACL [2] = biological target: T1, ACL; test: ACLY-MDH Coupled Assay
Target sequence in this assay (P53396 whole entry, species assumed): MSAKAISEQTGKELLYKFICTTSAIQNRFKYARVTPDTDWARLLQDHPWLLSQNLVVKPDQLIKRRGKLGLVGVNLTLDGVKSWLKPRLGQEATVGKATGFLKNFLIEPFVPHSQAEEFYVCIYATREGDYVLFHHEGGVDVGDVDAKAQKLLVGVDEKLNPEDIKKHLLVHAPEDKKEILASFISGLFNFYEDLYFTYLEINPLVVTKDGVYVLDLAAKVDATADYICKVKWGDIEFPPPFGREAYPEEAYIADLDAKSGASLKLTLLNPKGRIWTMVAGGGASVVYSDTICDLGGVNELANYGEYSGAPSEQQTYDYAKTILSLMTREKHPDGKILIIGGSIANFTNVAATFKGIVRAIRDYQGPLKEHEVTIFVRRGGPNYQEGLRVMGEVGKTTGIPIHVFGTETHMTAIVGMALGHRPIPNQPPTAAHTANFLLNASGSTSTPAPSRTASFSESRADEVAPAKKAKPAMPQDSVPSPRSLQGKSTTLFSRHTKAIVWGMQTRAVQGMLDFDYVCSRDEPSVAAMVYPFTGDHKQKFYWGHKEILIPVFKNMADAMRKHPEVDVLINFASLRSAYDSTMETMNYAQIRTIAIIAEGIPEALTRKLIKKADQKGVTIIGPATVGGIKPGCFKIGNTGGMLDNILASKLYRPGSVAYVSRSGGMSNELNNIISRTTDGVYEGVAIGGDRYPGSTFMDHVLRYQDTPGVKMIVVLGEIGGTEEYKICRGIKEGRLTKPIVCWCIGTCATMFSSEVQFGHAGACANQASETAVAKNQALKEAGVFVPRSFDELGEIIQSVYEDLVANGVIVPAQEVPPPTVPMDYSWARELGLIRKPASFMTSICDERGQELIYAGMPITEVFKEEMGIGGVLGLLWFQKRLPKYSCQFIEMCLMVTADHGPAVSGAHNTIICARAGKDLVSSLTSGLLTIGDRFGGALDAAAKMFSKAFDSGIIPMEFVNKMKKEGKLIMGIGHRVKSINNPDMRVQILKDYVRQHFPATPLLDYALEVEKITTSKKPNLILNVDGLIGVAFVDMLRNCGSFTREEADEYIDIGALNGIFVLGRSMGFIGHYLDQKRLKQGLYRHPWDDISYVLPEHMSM
Protocol: Compounds of the present invention were evaluated in an ACLY Coupled Assay.
The assay protocol for the Coupled Assay (below) was followed:
b) Add 1 μL cpds to 96 assay plate, Test cpd conc: 100/30/10 μM top dose, 3 folds dilution, 10+0+control (control: buffer without ACL+DMSO) points, 1000 rpm for 1 min, incubation at 25° C. for 60 min

[3] = read-out: ACL-ADP-Glo (IC50), 3 nM ACL, 15 μM ATP, 3 μM CoA, 300 μM Citrate
[4] = read-out: ACL-MDH Coupled Assay (IC50), 8 nM ACL, 60 μM CoA Na2, 85 μM Citrate, 250 μM ATP, 250 μM NADH

Row | Structure (SMILES) | IC50 (ACL [1]) [nM] | IC50 (ACL [2]) [nM] | IC50 (ACL [1]; [3]) [nM] | IC50 (ACL [2]; [4]) [nM]
1 | COc1cc(Br)ccc1NS(=O)(=O)c1cc(Cl)cc(Cl)c1O [I-11, N-(4-bromo-2-methoxyphenyl)-3,5-dichloro-2-hydroxybenzenesulfonamide] | 500 to 20000 | 500 to 30000 | – | –
2 | COc1ccc(-c2ccccc2)cc1NS(=O)(=O)c1cccc(-c2nn[nH]n2)c1 [I-19, N-(4-methoxy-[1,1′-biphenyl]-3-yl)-3-(2H-tetrazol-5-yl)benzenesulfonamide] | 500 to 20000 | 500 to 30000 | – | –
3 | O=S(=O)(Nc1cc(-c2nn[nH]n2)ccc1F)c1cc(Cl)cc(Cl)c1O [I-24, 3,5-dichloro-N-[2-fluoro-5-(2H-1,2,3,4-tetrazol-5-yl)phenyl]-2-hydroxybenzene-1-sulfonamide] | 500 to 20000 | 500 to 30000 | – | –
4 | O=S(=O)(Nc1cc(-c2ccccc2)ccc1O)c1cc(Cl)cc(Cl)c1O [I-28, 3,5-dichloro-2-hydroxy-N-(2-hydroxy-5-phenylphenyl) benzene-1-sulfonamide] | 500 to 20000 | 50 to 500 | – | –
5 | N#Cc1cc(Cl)cc(S(=O)(=O)Nc2cc(-c3ccccc3)ccc2F)c1O [I-29, 5-chloro-3-cyano-N-(2-fluoro-5-phenylphenyl)-2-hydroxybenzene-1-sulfonamide] | 500 to 20000 | 500 to 30000 | – | –
6 | O=S(=O)(Nc1cc(-c2ccccc2)ccn1)c1cc(Cl)cc(Br)c1O [I-32] | 500 to 20000 | 500 to 30000 | – | –
7 | O=C(O)COc1c(Br)cc(Cl)cc1S(=O)(=O)Nc1cc(-c2ccccc2)ccc1F [I-46, 2-(2-bromo-4-chloro-6-(N-(4-fluoro-[1,1′-biphenyl]-3-yl)sulfamoyl)phenoxy)acetic Acid] | 500 to 20000 | 500 to 30000 | – | –
8 | COc1ccc(-c2ccccc2)cc1NS(=O)(=O)c1cc(C(=O)N(C)C)cc(Cl)c1O [I-56, 3-chloro-4-hydroxy-5-[(2-methoxy-5-phenylphenyl)sulfamoyl]-N,N-dimethylbenzamide] | 50 to 500 | 50 to 500 | – | –
9 | CNC(=O)c1cc(Cl)c(O)c(S(=O)(=O)Nc2cc(-c3ccccc3)ccc2OC)c1 [I-66, 3-chloro-4-hydroxy-5-[(2-methoxy-5-phenylphenyl)sulfamoyl]-N-methylbenzamide] | 50 to 500 | 500 to 30000 | – | –
10 | CC(C)NC(=O)c1cc(Cl)c(O)c(S(=O)(=O)Nc2cc(-c3ccccc3)c(F)cc2F)c1 [I-93] | – | 50 to 500 | < 50 | –
11 | O=C(c1cc(Cl)c(O)c(S(=O)(=O)Nc2cc(-c3ccccc3)c(F)cc2F)c1)N1Cc2ccccc2C1 [I-100, 3-chloro-N-(4,6-difluoro-[1,1′-biphenyl]-3-yl)-2-hydroxy-5-(isoindoline-2-carbonyl)benzenesulfonamide] | 50 to 500 | 500 to 30000 | – | –
12 | CO[C@H]1CCN(C(=O)c2cc(Cl)c(O)c(S(=O)(=O)Nc3cc(-c4ccccc4)c(F)cc3F)c2)C1 [I-103, 3-chloro-N-(2,4-difluoro-5-phenylphenyl)-2-hydroxy-5-[[(3S)-3-methoxypyrrolidin-1-yl]carbonyl]benzene-1-sulfonamide] | – | – | < 50 | < 50
13 | CO[C@@H]1CCN(C(=O)c2cc(Cl)c(O)c(S(=O)(=O)Nc3cc(-c4ccccc4)c(F)cc3F)c2)C1 [I-104, 3-chloro-N-(2,4-difluoro-5-phenylphenyl)-2-hydroxy-5-[[(3R)-3-methoxypyrrolidin-1-yl]carbonyl]benzene-1-sulfonamide] | 50 to 500 | 500 to 30000 | – | –
14 | O=C(c1cc(Cl)c(O)c(S(=O)(=O)Nc2cc(-c3ccccc3)c(F)cc2F)c1)N1CC[C@H](O)C1 [I-105, (S)-3-chloro-N-(4,6-difluoro-[1,1′-biphenyl]-3-yl)-2-hydroxy-5-(3-hydroxypyrrolidine-1-carbonyl)benzenesulfonamide] | – | – | < 50 | < 50
15 | O=C(c1cc(Cl)c(O)c(S(=O)(=O)Nc2cc(-c3ccccc3)c(F)cc2F)c1)N1CC[C@@H](O)C1 [I-106, (R)-3-chloro-N-(4,6-difluoro-[1,1′-biphenyl]-3-yl)-2-hydroxy-5-(3-hydroxypyrrolidine-1-carbonyl)benzenesulfonamide] | – | 50 to 500 | < 50 | –
16 | CC(=O)NCCOC(=O)c1cc(Cl)c(O)c(S(=O)(=O)Nc2cc(-c3ccccc3)c(F)cc2F)c1 [I-112, 2-acetamidoethyl 3-chloro-5-(N-(4,6-difluoro-[1,1′-biphenyl]-3-yl)sulfamoyl)-4-hydroxybenzoate] | – | 50 to 500 | < 50 | –
17 | O=C(c1cc(Cl)c(O)c(S(=O)(=O)Nc2cc(-c3ccccc3)c(F)cc2F)c1)N1CC[C@@H](F)C1 [I-119, (R)-3-chloro-N-(4,6-difluoro-[1,1′-biphenyl]-3-yl)-5-(3-fluoropyrrolidine-1-carbonyl)-2-hydroxybenzenesulfonamide] | – | 50 to 500 | < 50 | –

The next lines start with the values.

Row | IC50 (ACL [1]) [nM] | IC50 (ACL [2]) [nM] | IC50 (ACL [1]; [3]) [nM] | IC50 (ACL [2]; [4]) [nM] | Structure (SMILES)
18 | 500 to 20000 | 500 to 30000 | – | – | COc1ccc(-c2cccnc2)cc1NS(=O)(=O)c1cc(Cl)cc(Cl)c1O [I-7, 3,5-dichloro-2-hydroxy-N-(2-methoxy-5-(pyridin-3-yl)phenyl)benzenesulfonamide]
19 | 500 to 20000 | 500 to 30000 | – | – | O=C(O)c1ccc(F)c(NS(=O)(=O)c2cc(Cl)cc(Cl)c2O)c1 [I-12, 3-((3,5-dichloro-2-hydroxyphenyl)sulfonamido)-4-fluorobenzoic Acid]
20 | 500 to 20000 | 500 to 30000 | – | – | COC(=O)c1cc(Cl)c(OC)c(S(=O)(=O)Nc2cc(-c3ccccc3)ccc2F)c1 [I-49, Methyl 3-chloro-5-(N-(4-fluoro-[1,1′-biphenyl]-3-yl)sulfamoyl)-4-methoxybenzoate]
21 | 500 to 20000 | 500 to 30000 | – | – | CCC(=O)Oc1c(Cl)cc(Cl)cc1S(=O)(=O)Nc1cc(-c2ccccc2)ccc1F [I-50, 2,4-dichloro-6-(N-(4-fluoro-[1,1′-biphenyl]-3-yl)sulfamoyl)phenyl propionate]
22 | 500 to 20000 | 500 to 30000 | – | – | Nc1ccc(-c2ccccc2)cc1NS(=O)(=O)c1cc(Cl)cc(Br)c1O [I-53, N-(2-amino-5-phenylphenyl)-3-bromo-5-chloro-2-hydroxybenzene-1-sulfonamide]
23 | 50 to 500 | 500 to 30000 | – | – | COc1ccc(-c2ccccc2)cc1NS(=O)(=O)c1cc(C(N)=O)cc(Cl)c1O [I-55, 3-chloro-4-hydroxy-5-[(2-methoxy-5-phenylphenyl)sulfamoyl]benzamide]
24 | 50 to 500 | 50 to 500 | – | – | COc1ccc(-c2ccccc2)cc1NS(=O)(=O)c1cc(C#N)cc(Cl)c1O [I-58, 3-chloro-5-cyano-2-hydroxy-N-(2-methoxy-5-phenylphenyl)benzene-1-sulfonamide]
25 | 500 to 20000 | 500 to 30000 | – | – | COc1c(Cl)cc(C(=O)O)cc1S(=O)(=O)Nc1cc(-c2ccccc2)c(F)cc1F [I-62, 3-chloro-5-[(2,4-difluoro-5-phenylphenyl)sulfamoyl]-4-methoxybenzoic Acid]
26 | 500 to 20000 | 500 to 30000 | – | – | COc1ccc(-c2ccccc2)cc1NS(=O)(=O)c1cc(C(=O)NCCN)cc(Cl)c1O [I-64, N-(2-aminoethyl)-3-chloro-4-hydroxy-5-[(2-methoxy-5-phenylphenyl)sulfamoyl]benzamide]
27 | 500 to 20000 | 500 to 30000 | – | – | O=S(=O)(c1cc(Cl)cc(Cl)c1O)N(Cc1ccccc1)Cc1cccc(-c2ccccc2)c1 [I-67, N-([1,1′-biphenyl]-3-ylmethyl)-N-benzyl-3,5-dichloro-2-hydroxybenzenesulfonamide]
28 | 50 to 500 | 500 to 30000 | – | – | COC(=O)c1cc(Cl)c(O)c(S(=O)(=O)Nc2ccc(F)cc2F)c1 [I-74, Methyl 3-chloro-5-(N-(2,4-difluorophenyl)sulfamoyl)-4-hydroxybenzoate]
29 | 50 to 500 | 50 to 500 | – | – | CNC(=O)c1cc(Cl)c(O)c(S(=O)(=O)Nc2cc(-c3ccccc3)c(F)cc2F)c1 [I-92, 3-chloro-5-[(2,4-difluoro-5-phenylphenyl)sulfamoyl]-4-hydroxy-N-methylbenzamide]
30 | 500 to 20000 | 500 to 30000 | – | – | COC(=O)Cc1cc(Cl)c(O)c(S(=O)(=O)Nc2cc(-c3ccccc3)ccc2OC)c1 [I-94, Methyl 2-[3-chloro-4-hydroxy-5-[(2-methoxy-5-phenylphenyl)sulfamoyl]phenyl]acetate]
31 | 50 to 500 | 50 to 500 | – | – | O=C(O)c1cc(Cl)c(O)c(S(=O)(=O)Nc2cc(-c3ccccc3)c(F)cc2F)c1 [I-95, 3-chloro-5-(N-(4,6-difluoro-[1,1′-biphenyl]-3-yl)sulfamoyl)-4-hydroxybenzoic Acid]
32 | 500 to 20000 | 500 to 30000 | – | – | O=C(c1cc(Cl)c(O)c(S(=O)(=O)Nc2cc(-c3ccccc3)c(F)cc2F)c1)N1CCOCC1 [I-99, 3-chloro-N-(4,6-difluoro-[1,1′-biphenyl]-3-yl)-2-hydroxy-5-(morpholine-4-carbonyl)benzenesulfonamide]
33 | 50 to 500 | 500 to 30000 | – | – | O=C(c1cc(Cl)c(O)c(S(=O)(=O)Nc2cc(-c3ccccc3)c(F)cc2F)c1)N1CCCCC1 [I-102, 3-chloro-N-(2,4-difluoro-5-phenylphenyl)-2-hydroxy-5-[(piperidin-1-yl)carbonyl]benzene-1-sulfonamide]
34 | 500 to 20000 | 500 to 30000 | – | – | O=C(O)c1cc(Cl)c(O)c(S(=O)(=O)Nc2cc(-c3ccccc3)ccc2F)c1 [I-107, 3-chloro-5-[(2-fluoro-5-phenylphenyl)sulfamoyl]-4-hydroxybenzoic Acid]
35 | 500 to 20000 | 500 to 30000 | – | – | O=C(O)c1cc(Cl)c(O)c(S(=O)(=O)Nc2cc(-c3ccccc3)cc(F)c2F)c1 [I-115, 3-chloro-5-[(2,3-difluoro-5-phenylphenyl)sulfamoyl]-4-hydroxybenzoic Acid]
36 | – | 50 to 500 | < 50 | – | O=C(c1cc(Cl)c(O)c(S(=O)(=O)Nc2cc(-c3ccccc3)c(F)cc2F)c1)N1CC[C@H](F)C1 [I-118, (S)-3-chloro-N-(4,6-difluoro-[1,1′-biphenyl]-3-yl)-5-(3-fluoropyrrolidin-1-carbonyl)-2-hydroxybenzenesulfonamide]
